What was measured:
CHO-K1 cells [1] = assay: Batch fermentation in shake flasks of human IgG1 expressing stable cell populations (Poros A-HPLC titer, viable cell density, viability); assay type: cell-based, Chinese hamster; conditions: for Productivity profile / Batch titer day 7: human IgG1
Experimental: (§1) To efficiently test the impact of different procedures on improving selection stringency, experimental testing in stable cell populations was performed. As test molecules, enhanced green fluorescent protein (GFP) as well as a human IgG1 were chosen. CHO-K1 cells adapted to growth in suspension in defined medium were obtained from SAFC and cultivated in EX-CELL CD CHO Fusion medium (SAFC 14365C). Custom-made EX-CELL CD CHO Fusion medium without L-Proline (Pro) and without L-Ornithine (Orn) ("proline-free medium") was obtained from SAFC. The expression vector system was based on modified versions of "CET 1019 AS-puro-SceI" and "CET 1019 AD-puro-SceI" for GFP and human IgG1, respectively, from Merck-Millipore, containing the Puromycin selection marker (Puromycin N-acetyl-transferase) known to exert a high selection stringency. To minimize variations in cell populations derived from using different transfections or different vectors, the first series of experiments were conducted using vectors into which a P5CS expression cassette was cloned upstream of a UCOE element, in addition to the Puromycin selection marker present downstream of a gene of interest. This way, it was possible to pool different transfections using the same vector to obtain a common starting point, and split the mixture according to different selection conditions, minimizing any variations that are not due to selection conditions themselves. Expression of long and short isoform of murine P5CS (Protein: Delta-1-pyrroline-5-carboxylate synthase; Gene: Aldh18a1; UniProtKB accession number: Q9Z110-1 & Q9Z110-2) was driven by a SV40 promoter. A SV40 polyadenylation sequence was used at the 3' end of the gene. More details can be found in Table 1. Typically, CHO cells were cultivated in EX-CELL CD CHO Fusion medium containing 6 mM GlutaMAX (Thermo Fisher, 35050-38) ("CD-Fusion medium") at 37 °C with 5% CO2. Cells were grown to logarithmic phase under shaking conditions for transfections. 1e7 cells/cuvette were transfected using nucleofection (Amaxa Nucleofector II, following the manufacturer's recommendations) with 5 µg of linearized DNA. After transfection, cells were taken up in 1 ml medium and transferred into 1 well of a 6 well microtiter plate (MTP) already containing 1 ml medium. The cells were incubated for 24 h without shaking, after which 9 ml medium were added and cells were washed (either in standard or proline-free medium). Multiple transfections were pooled, if applicable. Cells were adjusted to 2e5 viable cells/ml and 10 ml were transferred to T-25 flasks. Reference cell populations were selected using 10 µg/ml Puromycin in CD-Fusion medium. For P5CS-based selection, EX-CELL CD CHO Fusion medium (custom-made, SAFC) containing 6 mM GlutaMAX without proline and without ornithine was used ("proline-free" or "CD-Fusion w/o Pro" medium), with or without additional selection pressure.
(§2) Cell viability of the different populations was monitored over time. As soon as cell populations appeared to recover from selection pressure, cells were transferred to Shake Flask or TubeSpins for expansion in suspension under shaking conditions. Subsequently, stable cell populations transfected with IgG were seeded at 2e5 viable cells/ml for batch fermentation without selection pressure (i.e. standard CD-Fusion medium containing proline and no other selective agents). The cells were cultivated for 5-10 days, viable cell densities and productivity were monitored over time. IgG titers were determined using Poros A-HPLC method. Typically, final batch titers were recorded at a time point at which majority of cultures had around 70% viability. Stable cell populations transfected with GFP vector were subjected to analysis by flow cytometry using Guava easyCyte 8HT Benchtop Flow Cytometer (Millipore). 250 µl of cell culture were transferred to 96 MTP and washed with PBS. Dead cells were excluded from analysis using propidium iodide (PI). […]

CHO-K1 cells [2] = assay: Cell viability post-transfection of transfected cell populations under selection conditions; assay type: cell-based, Chinese hamster
Experimental: as §1, §2

[3] = Day 2 after inoculation, pJF1576, selected in CD Fusion + 10 µg/ml Puromycin, non-selecting conditions
[4] = Day 2 after inoculation, pJF1576, selected in CD-Fusion w/o Pro + 0.25 mM Pro + 10 µg/ml Puromycin, non-selecting conditions
[5] = Day 3 after inoculation, pJF1576, selected in CD Fusion + 10 µg/ml Puromycin, selective conditions
[6] = Day 4 after inoculation, pJF1576, selected in CD Fusion + 10 µg/ml Puromycin, non-selecting conditions
[7] = Day 4 after inoculation, pJF1576, selected in CD-Fusion w/o Pro + 0.25 mM Pro + 10 µg/ml Puromycin, non-selecting conditions
[8] = Day 5 after inoculation, pJF1576, selected in CD Fusion + 10 µg/ml Puromycin, selective conditions
[9] = Day 7 after inoculation, pJF1576, selected in CD Fusion + 10 µg/ml Puromycin, non-selecting conditions
[10] = Day 7 after inoculation, pJF1576, selected in CD Fusion + 10 µg/ml Puromycin, selective conditions
[11] = Day 7 after inoculation, pJF1576, selected in CD-Fusion w/o Pro + 0.25 mM Pro + 10 µg/ml Puromycin, non-selecting conditions
[12] = Day 9 after inoculation, pJF1576, selected in CD Fusion + 10 µg/ml Puromycin, non-selecting conditions
[13] = Day 9 after inoculation, pJF1576, selected in CD-Fusion w/o Pro + 0.25 mM Pro + 10 µg/ml Puromycin, non-selecting conditions
[14] = MOCK, CD Fusion + 10 µg/ml Puromycin
[15] = MOCK, CD-Fusion w/o Pro + 10 µg/ml Puromycin
[16] = MOCK, CD-Fusion w/o Pro + 0.25 mM Pro + 10 µg/ml Puromycin
[17] = pJF1555, CD-Fusion w/o Pro + 0.25 mM Pro + 10 µg/ml Puromycin
[18] = pJF1576, CD-Fusion + 10 µg/ml Puromycin
[19] = pJF2053, CD-Fusion + 10 µg/ml Puromycin

## COc1ccc(C[C@H](N)C(=O)N[C@H]2[C@@H](O)[C@H](n3cnc4c(N(C)C)ncnc43)O[C@@H]2CO)cc1 [Puromycin]
CHO-K1 cells [1]; Day 0 after inoculation, pJF1576, selected in CD Fusion + 10 µg/ml Puromycin, non-selecting conditions
  Viability profile: 98.7%
CHO-K1 cells [1]; Day 0 after inoculation, pJF1576, selected in CD Fusion + 10 µg/ml Puromycin, selective conditions
  Viability profile: 92.8%
CHO-K1 cells [1]; Day 0 after inoculation, pJF1576, selected in CD-Fusion w/o Pro + 0.25 mM Pro + 10 µg/ml Puromycin, non-selecting conditions
  Viability profile: 99.0%
CHO-K1 cells [1]; [3]
  Productivity profile: 6.9 mg/L
  Viability profile: 99.0%
  Viable cell density profile: 7,7E+05 VCD/ml
CHO-K1 cells [1]; Day 2 after inoculation, pJF1576, selected in CD Fusion + 10 µg/ml Puromycin, selective conditions
  Productivity profile: 10.9 mg/L
CHO-K1 cells [1]; [4]
  Productivity profile: 11.2 mg/L
  Viability profile: 99.1%
  Viable cell density profile: 8,3E+05 VCD/ml
CHO-K1 cells [1]; [5]
  Viability profile: 98.4%
  Viable cell density profile: 1.7E+06 VCD/ml
CHO-K1 cells [1]; [6]
  Productivity profile: 15.1 mg/L
  Viability profile: 99.7%
  Viable cell density profile: 6,2E+06 VCD/ml
CHO-K1 cells [1]; Day 4 after inoculation, pJF1576, selected in CD Fusion + 10 µg/ml Puromycin, selective conditions
  Productivity profile: 27.6 mg/L
CHO-K1 cells [1]; [7]
  Productivity profile: 24.1 mg/L
  Viability profile: 99.8%
  Viable cell density profile: 5,4E+06 VCD/ml
CHO-K1 cells [1]; [8]
  Viability profile: 99.1%
  Viable cell density profile: 7.1E+06 VCD/ml
CHO-K1 cells [1]; [9]
  Productivity profile: 43.3 mg/L
  Viability profile: 98.7%
  Viable cell density profile: 1,2E+07 VCD/ml
CHO-K1 cells [1]; [10]
  Productivity profile: 60.5 mg/L
  Viability profile: 97.7%
  Viable cell density profile: 1.1E+07 VCD/ml
CHO-K1 cells [1]; [11]
  Productivity profile: 60.6 mg/L
  Viability profile: 97.8%
  Viable cell density profile: 1,0E+07 VCD/ml
CHO-K1 cells [1]; [12]
  Productivity profile: 61.5 mg/L
  Viability profile: 43.9%
  Viable cell density profile: 5,8E+06 VCD/ml
CHO-K1 cells [1]; [13]
  Productivity profile: 92.5 mg/L
  Viability profile: 58.1%
  Viable cell density profile: 6,2E+06 VCD/ml
CHO-K1 cells [1]; pJF1576, selected in CD Fusion + 10 µg/ml Puromycin, non-selecting conditions
  Batch titer day 7: 145 mg/L
CHO-K1 cells [1]; pJF1576, selected in CD-Fusion w/o Pro + 10 µg/ml Puromycin, non-selecting conditions
  Batch titer day 7: 198 mg/L
CHO-K1 cells [1]; pJF1576, selected in CD-Fusion w/o Pro + 0.25 mM Pro + 10 µg/ml Puromycin, non-selecting conditions
  Batch titer day 7: 164 mg/L
CHO-K1 cells [1]; pJF1577, selected in CD Fusion + 10 µg/ml Puromycin, non-selecting conditions
  Batch titer day 7: 174 mg/L
CHO-K1 cells [1]; pJF1577, selected in CD-Fusion w/o Pro + 10 µg/ml Puromycin, non-selecting conditions
  Batch titer day 7: 154 mg/L
CHO-K1 cells [1]; pJF1577, selected in CD-Fusion w/o Pro + 0.25 mM Pro + 10 µg/ml Puromycin, non-selecting conditions
  Batch titer day 7: 127 mg/L
CHO-K1 cells [2]; [14]
  Viability on day 12 post-transfection: 25%
  Viability on day 13 post-transfection: 9%
  Viability on day 14 post-transfection: 19%
CHO-K1 cells [2]; [15]
  Viability on day 13 post-transfection: 14%
  Viability on day 14 post-transfection: 23%
CHO-K1 cells [2]; [16]
  Viability on day 12 post-transfection: 23%
  Viability on day 13 post-transfection: 13%
  Viability on day 14 post-transfection: 20%
CHO-K1 cells [2]; Table 8, pJF1555, CD-Fusion w/o Pro + 0.25 mM Pro + 10 µg/ml Puromycin
  Viability on day 12 post-transfection: 83%
CHO-K1 cells [2]; Table 12, pJF1555, CD-Fusion + 10 µg/ml Puromycin
  Viability on day 12 post-transfection: 86%
CHO-K1 cells [2]; Table 12, pJF1555, CD-Fusion w/o Pro + 0.25 mM Pro + 10 µg/ml Puromycin
  Viability on day 12 post-transfection: 63%
CHO-K1 cells [2]; pJF1555, CD Fusion + 10 µg/ml Puromycin
  Viability on day 14 post-transfection: 75%
CHO-K1 cells [2]; pJF1555, CD-Fusion + 10 µg/ml Puromycin
  Viability on day 19 post-transfection: 49%
CHO-K1 cells [2]; pJF1555, CD-Fusion w/o Pro + 10 µg/ml Puromycin
  Viability on day 14 post-transfection: 79%
CHO-K1 cells [2]; [17]
  Viability on day 14 post-transfection: 79%
  Viability on day 19 post-transfection: 48%
CHO-K1 cells [2]; pJF1556, CD Fusion + 10 µg/ml Puromycin
  Viability on day 13 post-transfection: 81%
CHO-K1 cells [2]; pJF1556, CD-Fusion w/o Pro + 10 µg/ml Puromycin
  Viability on day 13 post-transfection: 92%
CHO-K1 cells [2]; pJF1556, CD-Fusion w/o Pro + 0.25 mM Pro + 10 µg/ml Puromycin
  Viability on day 13 post-transfection: 90%
CHO-K1 cells [2]; [18]
  Viability on day 12 post-transfection: 78%
  Viability on day 21 post-transfection: 98.4%
CHO-K1 cells [2]; pJF1576, CD-Fusion w/o Pro + 0.25 mM Pro + 10 µg/ml Puromycin
  Viability on day 12 post-transfection: 79%
CHO-K1 cells [2]; pJF1579, CD-Fusion + 10 µg/ml Puromycin
  Viability on day 21 post-transfection: 98.8%
CHO-K1 cells [2]; [19]
  Viability on day 15 post-transfection: 86.6%
  Viability on day 22 post-transfection: 98.6%
CHO-K1 cells [2]; pJF2222, CD-Fusion + 10 µg/ml Puromycin
  Viability on day 22 post-transfection: 98.7%

Reference: patent publication EP3521435A1, “A HIGH STRINGENCY SELECTION SYSTEM FOR PROTEIN EXPRESSION IN PROLINE-AUXOTROPHIC CELLS” (Bayer AG, priority 2018, dated 2019)
